Test results from US20230181721A1 (priority 2020, published 2023).

Legend:
HLA-A2.1 transgenic mice [1] = conditions: mouse, in vivo
HLA-A2.1 transgenic mice [2] = conditions: mouse, in vivo; remark: listed apart in the source
HLA-A2.1 transgenic mice [3] = conditions: mouse, in vivo; remark: listed apart in the source
human PBMC = assay type: cell-based

## ALSKGVHFV [3_wt]
HLA-A2.1 transgenic mice [1]
  ELIspot (YES/NO): Yes
HLA-A2.1 transgenic mice [2]
  tetramer response: medium
HLA-A2.1 transgenic mice [3]
  Trm (response): No
  Trm response: No
Human PBMC
  Patient response: Yes

## AVSKGVHFI [3_neoB]
HLA-A2.1 transgenic mice [1]
  ELIspot (YES/NO): Yes
HLA-A2.1 transgenic mice [2]
  tetramer response: medium
HLA-A2.1 transgenic mice [3]
  Trm response: No

## CLEASFNYV [5_neoA]
HLA-A2.1 transgenic mice [1]
  ELIspot (YES/NO): No
HLA-A2.1 transgenic mice [2]
  tetramer response: medium
HLA-A2.1 transgenic mice [3]
  Trm (response): Yes
  Trm response: Yes
Human PBMC
  Patient response: Yes

## FLAGLIAIV [6_neoA]
HLA-A2.1 transgenic mice [1]
  ELIspot (YES/NO): Yes
HLA-A2.1 transgenic mice [2]
  tetramer response: high
HLA-A2.1 transgenic mice [3]
  Trm (response): Yes
  Trm response: Yes
Human PBMC
  Patient response: Yes

## FLLNKEMYL [8_wt]
HLA-A2.1 transgenic mice [1]
  ELIspot (YES/NO): Yes
HLA-A2.1 transgenic mice [2]
  tetramer response: medium
HLA-A2.1 transgenic mice [3]
  Trm (response): No
  Trm response: No
Human PBMC
  Patient response: Yes

## FMAGLIAIV [6_neoB]
HLA-A2.1 transgenic mice [1]
  ELIspot (YES/NO): Yes
HLA-A2.1 transgenic mice [2]
  tetramer response: medium
HLA-A2.1 transgenic mice [3]
  Trm response: No

## FTAHIQWMV [7_neoB]
HLA-A2.1 transgenic mice [1]
  ELIspot (YES/NO): Yes
HLA-A2.1 transgenic mice [2]
  tetramer response: medium
HLA-A2.1 transgenic mice [3]
  Trm response: No

## GLMWLSYFV [14_neoA]
HLA-A2.1 transgenic mice [1]
  ELIspot (YES/NO): Yes
HLA-A2.1 transgenic mice [2]
  tetramer response: medium
HLA-A2.1 transgenic mice [3]
  Trm (response): No
  Trm response: No
Human PBMC
  Patient response: Yes

## GLSRIGMEV [15_neoA]
HLA-A2.1 transgenic mice [1]
  ELIspot (YES/NO): No
HLA-A2.1 transgenic mice [2]
  tetramer response: high
HLA-A2.1 transgenic mice [3]
  Trm response: No

## GTSRIGMEV [15_neoB]
HLA-A2.1 transgenic mice [1]
  ELIspot (YES/NO): No
HLA-A2.1 transgenic mice [2]
  tetramer response: high
HLA-A2.1 transgenic mice [3]
  Trm response: No

## KLADYNYKV [19_neoA]
HLA-A2.1 transgenic mice [1]
  ELIspot (YES/NO): Yes
HLA-A2.1 transgenic mice [2]
  tetramer response: low
Human PBMC
  Patient response: Yes

## KLKDCVMYA [20_wt]
HLA-A2.1 transgenic mice [1]
  ELIspot (YES/NO): No
HLA-A2.1 transgenic mice [2]
  tetramer response: medium
HLA-A2.1 transgenic mice [3]
  Trm response: Yes

## KLSYGIATE [22_neoB]
HLA-A2.1 transgenic mice [1]
  ELIspot (YES/NO): No
HLA-A2.1 transgenic mice [2]
  tetramer response: high
HLA-A2.1 transgenic mice [3]
  Trm response: No

## LALLLLDRL [23_wt]
HLA-A2.1 transgenic mice [1]
  ELIspot (YES/NO): Yes
HLA-A2.1 transgenic mice [2]
  tetramer response: medium
HLA-A2.1 transgenic mice [3]
  Trm (response): Yes
  Trm response: Yes
Human PBMC
  Patient response: Yes

## LLLDRLNQV [25_neoA]
HLA-A2.1 transgenic mice [1]
  ELIspot (YES/NO): Yes
HLA-A2.1 transgenic mice [2]
  tetramer response: medium
HLA-A2.1 transgenic mice [3]
  Trm response: No

## LLLPQGTTV [29_neoA]
HLA-A2.1 transgenic mice [1]
  ELIspot (YES/NO): No
HLA-A2.1 transgenic mice [2]
  tetramer response: medium
HLA-A2.1 transgenic mice [3]
  Trm (response): Yes
  Trm response: Yes
Human PBMC
  Patient response: Yes

## LLLTILTSV [26_neoA]
HLA-A2.1 transgenic mice [1]
  ELIspot (YES/NO): Yes
HLA-A2.1 transgenic mice [2]
  tetramer response: medium
HLA-A2.1 transgenic mice [3]
  Trm (response): Yes
  Trm response: Yes
Human PBMC
  Patient response: Yes

## LLSAGIFGV [27_neoA]
HLA-A2.1 transgenic mice [1]
  ELIspot (YES/NO): Yes
HLA-A2.1 transgenic mice [2]
  tetramer response: high
HLA-A2.1 transgenic mice [3]
  Trm (response): No
  Trm response: No
Human PBMC
  Patient response: Yes

## LLTGRLQSV [24_neoA]
HLA-A2.1 transgenic mice [1]
  ELIspot (YES/NO): Yes
HLA-A2.1 transgenic mice [2]
  tetramer response: high
HLA-A2.1 transgenic mice [3]
  Trm response: No

## LLWLIINLV [28_neoA]
HLA-A2.1 transgenic mice [1]
  ELIspot (YES/NO): Yes
HLA-A2.1 transgenic mice [2]
  tetramer response: high
HLA-A2.1 transgenic mice [3]
  Trm (response): No
  Trm response: No
Human PBMC
  Patient response: Yes

## LVSAGIFGV [27_neoB]
HLA-A2.1 transgenic mice [1]
  ELIspot (YES/NO): Yes
HLA-A2.1 transgenic mice [2]
  tetramer response: high
HLA-A2.1 transgenic mice [3]
  Trm (response): Yes
  Trm response: Yes
Human PBMC
  Patient response: Yes

## MLAKALRKV [30_wt]
HLA-A2.1 transgenic mice [1]
  ELIspot (YES/NO): Yes
HLA-A2.1 transgenic mice [2]
  tetramer response: high
HLA-A2.1 transgenic mice [3]
  Trm (response): No
  Trm response: No
Human PBMC
  Patient response: Yes

## MMISAGFSL [31_wt]
Human PBMC
  Patient response: Yes

## NLIDSYFVV [32_wt]
HLA-A2.1 transgenic mice [1]
  ELIspot (YES/NO): Yes
HLA-A2.1 transgenic mice [2]
  tetramer response: medium
HLA-A2.1 transgenic mice [3]
  Trm (response): Yes
  Trm response: Yes
Human PBMC
  Patient response: Yes

## NLLKDCPAV [33_wt]
HLA-A2.1 transgenic mice [1]
  ELIspot (YES/NO): Yes
HLA-A2.1 transgenic mice [2]
  tetramer response: medium
HLA-A2.1 transgenic mice [3]
  Trm response: No

## NLNESLIDL [34_wt]
HLA-A2.1 transgenic mice [1]
  ELIspot (YES/NO): No
HLA-A2.1 transgenic mice [2]
  tetramer response: medium
HLA-A2.1 transgenic mice [3]
  Trm response: No

## QLEMELTPV [36_wt]
HLA-A2.1 transgenic mice [1]
  ELIspot (YES/NO): No
HLA-A2.1 transgenic mice [2]
  tetramer response: medium
HLA-A2.1 transgenic mice [3]
  Trm (response): Yes
  Trm response: Yes
Human PBMC
  Patient response: Yes

## RLMTWLDMV [37_neoA]
HLA-A2.1 transgenic mice [1]
  ELIspot (YES/NO): Yes
HLA-A2.1 transgenic mice [2]
  tetramer response: high
HLA-A2.1 transgenic mice [3]
  Trm (response): No
  Trm response: No
Human PBMC
  Patient response: Yes

## RLNEVAKNV [38_neoA]
HLA-A2.1 transgenic mice [1]
  ELIspot (YES/NO): No
HLA-A2.1 transgenic mice [2]
  tetramer response: high
HLA-A2.1 transgenic mice [3]
  Trm response: No

## RLNQLESKV [39_neoA]
HLA-A2.1 transgenic mice [1]
  ELIspot (YES/NO): No
HLA-A2.1 transgenic mice [2]
  tetramer response: medium
HLA-A2.1 transgenic mice [3]
  Trm response: Yes

## RTMTWLDMI [37_neoB]
HLA-A2.1 transgenic mice [1]
  ELIspot (YES/NO): Yes
HLA-A2.1 transgenic mice [2]
  tetramer response: high
HLA-A2.1 transgenic mice [3]
  Trm (response): No
  Trm response: No
Human PBMC
  Patient response: Yes

## SAPGVFCGV [41_neoB]
HLA-A2.1 transgenic mice [1]
  ELIspot (YES/NO): Yes
HLA-A2.1 transgenic mice [2]
  tetramer response: high
HLA-A2.1 transgenic mice [3]
  Trm (response): No
  Trm response: No
Human PBMC
  Patient response: YES

## SAWALIISV [42_neoB]
HLA-A2.1 transgenic mice [1]
  ELIspot (YES/NO): Yes
HLA-A2.1 transgenic mice [2]
  tetramer response: high
HLA-A2.1 transgenic mice [3]
  Trm (response): Yes
  Trm response: Yes
Human PBMC
  Patient response: Yes

## SLIAYTMSV [40_neoA]
HLA-A2.1 transgenic mice [1]
  ELIspot (YES/NO): Yes
HLA-A2.1 transgenic mice [2]
  tetramer response: medium
HLA-A2.1 transgenic mice [3]
  Trm response: No

## SMWALIISV [42_wt]
HLA-A2.1 transgenic mice [1]
  ELIspot (YES/NO): Yes
HLA-A2.1 transgenic mice [2]
  tetramer response: high
HLA-A2.1 transgenic mice [3]
  Trm (response): Yes
  Trm response: Yes
Human PBMC
  Patient response: Yes

## VLFLHVTYV [48_neoA]
HLA-A2.1 transgenic mice [1]
  ELIspot (YES/NO): Yes
HLA-A2.1 transgenic mice [2]
  tetramer response: high
HLA-A2.1 transgenic mice [3]
  Trm (response): No
  Trm response: No
Human PBMC
  Patient response: Yes

## VLMAPISAV [46_neoA]
HLA-A2.1 transgenic mice [1]
  ELIspot (YES/NO): Yes
HLA-A2.1 transgenic mice [2]
  tetramer response: medium
HLA-A2.1 transgenic mice [3]
  Trm response: No

## VLPTKLNDV [47_neoA]
HLA-A2.1 transgenic mice [1]
  ELIspot (YES/NO): No
HLA-A2.1 transgenic mice [2]
  tetramer response: medium
HLA-A2.1 transgenic mice [3]
  Trm (response): Yes
  Trm response: Yes
Human PBMC
  Patient response: Yes

## VSFLHVTYV [48_neoB]
HLA-A2.1 transgenic mice [1]
  ELIspot (YES/NO): Yes
HLA-A2.1 transgenic mice [2]
  tetramer response: high
HLA-A2.1 transgenic mice [3]
  Trm (response): Yes
  Trm response: Yes
Human PBMC
  Patient response: Yes

## VVFLHVTYV [48_wt]
HLA-A2.1 transgenic mice [1]
  ELIspot (YES/NO): Yes
HLA-A2.1 transgenic mice [2]
  tetramer response: high
HLA-A2.1 transgenic mice [3]
  Trm (response): No
  Trm response: No
Human PBMC
  Patient response: Yes

## WLMWLIINL [49_wt]
HLA-A2.1 transgenic mice [1]
  ELIspot (YES/NO): No
HLA-A2.1 transgenic mice [2]
  tetramer response: high
HLA-A2.1 transgenic mice [3]
  Trm response: No

## YLMADLVYT [55_neoB]
HLA-A2.1 transgenic mice [1]
  ELIspot (YES/NO): Yes
HLA-A2.1 transgenic mice [2]
  tetramer response: medium
HLA-A2.1 transgenic mice [3]
  Trm response: No

## YLNSTNVTV [51_neoA]
HLA-A2.1 transgenic mice [1]
  ELIspot (YES/NO): Yes
HLA-A2.1 transgenic mice [2]
  tetramer response: high
HLA-A2.1 transgenic mice [3]
  Trm response: Yes

## YLYALVYFV [54_neoA]
HLA-A2.1 transgenic mice [1]
  ELIspot (YES/NO): Yes
HLA-A2.1 transgenic mice [2]
  tetramer response: high
HLA-A2.1 transgenic mice [3]
  Trm response: Yes

## l_neoA (ALNTLVKQV)
HLA-A2.1 transgenic mice [1]
  ELIspot (YES/NO): Yes
HLA-A2.1 transgenic mice [2]
  tetramer response: high
HLA-A2.1 transgenic mice [3]
  Trm (response): Yes
  Trm response: Yes
Human PBMC
  Patient response: Yes
